Measured values taken from patent US8614218B2, “Fused bicyclic pyrimidines” (Bayer Intellectual Property GmbH, priority 2007, dated 2013).

Assays:
Type in all cases: cell-based
phospho-GSK3 (Ser9) = assay: Cellular pGSK3 assay (phospho-GSK3 ELISA); conditions: Homo sapiens, MCF7 cells, 48 h incubation, read-out: Cellular pGSK3 pathway assay
Description: In order to study the cellular activity of the compounds according to the present invention, an ELISA-based assay has been established for the phosphorylated protein glycogen synthetase kinase 3 (GSK3). The assay is based on a solid phase sandwich ELISA that detects endogenous levels of phosphorylated GSK3 using a phospho-GSK3 (Ser9) specific antibody (BioSource International, Inc.; Catalog #KHO0461). After incubation with cell lysates, the coated antibody captures the phosphorylated GSK3 protein. Following extensive washing, GSK3 polyclonal antibody is added to detect the captured phospho-GSK3 protein. Secondary antibody (anti-rabbit IgG-HRP) is then used to recognize the bound detection antibody. After the second incubation and washing to remove all the excess anti-rabbit IgG-HRP, a substrate solution is added, which is acted upon by the bound enzyme to produce color. The intensity of this colored product is directly proportional to the concentration of GSK-3β [pS9] present in the original specimen. MCF7 cells (ATCC HTB-22) were seeded into 96 well fate bottom plates at a density of 10000 cells/well. After 24 h 1 μl each of the compound dilutions (test compounds were dissolved as 10 mM solutions in dimethylsulfoxide (DMSO) and subsequently diluted) were added into each well of the 96 well plates and incubated for 48 h at 37° C. in a humidified atmosphere containing 5% CO2. Cells were harvested and lysed in cell extraction buffer (10 mM Tris, pH 7.4, 100 mM NaCl, 1 mM EDTA, 1 mM EGTA, 1 mM NaF, 20 mM Na4P2O7, 2 mM Na3VO4, 1% Triton X-100, 10 vol % glycerol, 0.1 vol % SDS, 0.5 vol % deoxycholate, 1 mM phenylmethylsulfonylfluoride (PMSF)). The lysate were centrifuged for 10 min. at 4° C. and the supernatant were transferred to a new tube. 50 μl of sample diluent (standard diluent buffer, Biosource) were added and 100 μl of cell lysate transferred into the tube and vortexed. 100 μl of each diluted cell lysate were added to the appropriate ELISA well plate and incubated for 3 h at room temperature. The plates were washed 4 times with 1× wash buffer (Biosource). 50 μl of detection antibody (GSK3 (Ser9) detection antibody; BioSource) were added to each well and incubated for 30 min. at room temperature. The washing procedure was repeated between each step. 100 μl of HRP-linked secondary antibody (anti-mouse IgG HRP-linked antibody) were added to each well and incubated for 30 min. at room temperature. 100 μl of TMB substrate (0.05 vol % 3,3′,5,5′ tetramethylbenzidine, 0.1 vol % hydrogen peroxide, complex polypeptides in a buffered solution; Biosource) were added to each well and incubated for 30 min. at room temperature. Finally 100 μl of Stop solution (0.05 vol % α and β unsaturated carbonyl compound) were added to each well and the plate were shaked gently for a few seconds. The absorbance was measured at λ=450 nm (Wallac Victor2; Perkin Elmer, USA) within 30 min. after adding the stop solution.
The analysis of the data was performed using a statistical program (Excel; Microsoft, USA) and the IC50 of pGSK3 inhibition was determined.

A549 cells = assay: Cellular proliferation/cytotoxicity assay (Alamar Blue), A549; conditions: Homo sapiens, 72 h, Alamar Blue (Resazurin), read-out: Anti-proliterative/Cytotoxic activity (A549 cells)
How it was run: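 OvCAR3 (10000 cells/well) or A549 (2000 cells/well) were dosed 24 h after seeding and exposed for 72 h at 37 °C, 5% CO2, in duplicate or more. Resazurin was added for 4 h and fluorescence read at 544/590 nm. Viability is relative to untreated 0.5% DMSO controls, with IC50 by non-linear regression.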

phospho-Akt (Ser473) = assay: Cellular PI3K/Akt pathway assay (phospho-Akt ELISA); conditions: Homo sapiens, MCF7 cells, β-Heregulin stimulated, 48 h incubation
Description: Cellular PI3K/Akt Pathway Assay
In order to study the cellular activity of the compounds according to the present invention, an Enzyme Linked Immunosorbent Assay (ELISA)-based assay has been used specific phospho-AKT. The assay is based on a Sandwich ELISA kit (PathScan™ Phospho-Akt1 (Ser473); Cell Signaling, USA; #7160). The ELISA Kit detects endogenous levels of phosphorylated Akt protein. A phospho-Akt (Ser473) antibody (Cell Signaling, USA; #9271) has been coated onto the microwells. After incubation with cell lysates, the coated antibody captures the phosphorylated Akt protein. Following extensive washing, Akt1 monoclonal antibody (Cell Signaling, USA; #2967) is added to detect the captured phospho-Akt1 protein. HRP-linked anti-mouse antibody (HRP: horseradish peroxidase; Cell Signaling, USA; #7076) is then used to recognize the bound detection antibody. HRP substrate (=3,3′,5,5′-tetramethylbenzidine (TMB); Cell Signaling, USA; #7160) is added to develop colour. The magnitude of optical density for this developed color is proportional to the quantity of phosphorylated Akt protein.
MCF7 cells (ATCC HTB-22) are seeded into 96 well fate bottom plates at a density of 10000 cells/well. 24 hours after seeding, the cells are serum starved using low-serum medium (IMEM media including 0.1% charcoal treated FCS (FCS: fetal calf serum)). After 24 hours 1 μl each of the compound dilutions (test compounds were dissolved as 10 mM solutions in dimethylsulfoxide (DMSO) and subsequently diluted) are added into each well of the 96 well plates and incubated for 48 h at 37° C. in a humidified atmosphere containing 5% CO2. To stimulate Akt phosphorylation, β-Heregulin (20 ng/ml β-HRG) is added in parallel to the compounds. Wells containing unstimulated control cells (no β-Heregulin stimulation) are incubated with or without the diluted compound. Wells containing untreated control cells (no compound) are filled with medium containing 0.5% v:v DMSO and are or are not stimulated with β-Heregulin.
Cells are harvested and lysed with brief sonification in 1× cell lysis buffer (20 mM Tris (pH7.5), 150 mM NaCl, 1 mM ethylene diaminetetraacetate (EDTA), 1 mM ethylene glycolbis(2-aminoethyl)-N,N,N′,N′-tetraacetic acid (EGTA), 1 vol % Triton X-100, 2.5 mM sodium pyrophosphate, 1 mM β-glycerolphosphate, 1 mM Na3VO4, 1 μg/ml leupeptin). The lysate is centrifuged for 10 min. at 4° C. and the supernatant is transferred to a new tube. 100 μl of sample diluent (0.1 vol % Tween-20, 0.1 vol % sodium azide in phosphate buffered saline (PBS)) are added to a microcentrifuge tube and 100 μl of cell lysate are transferred into the tube and vortexed. 100 μl of each diluted cell lysate are added to the appropriate ELISA well, and incubated overnight at 4° C. The plates are washed 4 times with 1× wash buffer (1 vol % tween-20, 0.33 vol % thymol, in PBS). Next 100 μl of detection antibody (Akt1 (2H10) monoclonal detection antibody; Cell Signaling, USA; #2967) are added to each well and incubation continued for 1 h at 37° C. The washing procedure is repeated between each step. 100 μl of secondary antibody (anti-mouse IgG HRP-linked antibody; Cell Signaling, USA; #7076) are added to each well and incubated for 30 min. at 37° C. Than, 100 μl of TMB substrate (0.05% 3,3′,5,5′ tetramethylbenzidine, 0.1% hydrogen peroxide, complex polypeptides in a buffered solution; Cell Signaling, USA; #7160) are added to each well and incubated for 30 min. at 25° C. Finally 100 μl of STOP solution (0.05 vol % α and β unsaturated carbonyl compound) are added to each well and the plate are shaked gently. The absorbance is measured at λ=450 nm (Wallac Victor2; Perkin Elmer, USA) within 30 min. after adding the STOP solution. The analysis of the data is performed using a statistical program (Excel; Microsoft, USA). Preferred compounds show an inhibitory activity towards Akt phosphorylation below 10 μM.

Compound	IC50 (phospho-GSK3 (Ser9))	IC50 (A549 cells)	IC50 (phospho-Akt (Ser473))
COc1c(-c2ccccc2)c(-c2ccc(CN3CCC(c4n[nH]c(-c5ccccn5)n4)CC3)cc2)nc2ccnn12 [Example 29, 7-Methoxy-6-phenyl-5-(4-{[4-(5-pyridin-2-yl-1H-1,2,4-triazol-3-yl)piperidin-1-yl]methyl}phenyl)pyrazolo[1,5-a]pyrimidine]	1 to 10 µM	> 10 µM	–
Cc1c(-c2ccccc2)c(-c2ccc(CN3CCC(c4n[nH]c(-c5ccccn5)n4)CC3)cc2)nc2nccn12 [Example 27, 5-methyl-6-phenyl-7-(4-{[4-(5-pyridin-2-yl-1H-1,2,4-triazol-3-yl)piperidin-1-yl]methyl}phenyl)imidazo[1,2-a]pyrimidine]	1 to 10 µM	–	> 10 µM
CC(C)c1nc2nc(-c3ccc(CN4CCC(c5n[nH]c(-c6ccccn6)n5)CC4)cc3)c(-c3ccccc3)cn2n1 [Example 28, 2-Isopropyl-6-phenyl-5-(4-{[4-(5-pyridin-2-yl-1H-1,2,4-triazol-3-yl)piperidin-1-yl]methyl}phenyl)[1,2,4]triazolo[1,5-a]pyrimidine]	1 to 10 µM	< 10 µM	–
